# Reference: article PMC10107299, “Neutralizing the Impact of the Virulence Factor LecA from Pseudomonas aeruginosa on Human Cells with New Glycomimetic Inhibitors” (Angewandte Chemie (International Ed. in English), 2023)
# How the values were obtained:
# [1] = Plasma protein binding (rapid equilibrium device), human plasma; type: in vitro ADME; settings: both sexes, human, plasma, read-out: PPB Human (converted)
# Experimental: mixer (Eppendorf). Acetonitrile and caffeine were dispensed using a Mantis Formulatrix. Then samples were centrifuged for 20 min at 2.270 x g at 4 °C and the supernatants were transferred to 96-well Greiner V-bottom plates. Peak areas of each compound and of the internal standard were analyzed using the MultiQuant 3.0 software (AB Sciex). Peak areas of the respective compound were normalized to the internal standard peak area and to the respective peak areas at time point 0 min: (C/D)/(A/B) with A: peak area of the compound at time point 0 min, B: peak area of the internal standard at time point 0 min, C: peak area of the compound at the respective time point, D: peak area of the internal standard at the respective time point. […]
# Assessment of plasma protein binding
# Plasma protein binding was assessed using the rapid equilibrium device (RED) system from ThermoFisher. Compounds were dissolved in DMSO. […]
# high plasma protein binding. Compounds were diluted in murine plasma (from CD-1 mice, pooled) or in human plasma (human donors, both genders, pooled) to a final concentration of 1 µM. Dialysis buffer and plasma samples were added to the respective chambers according the manufacturer’s protocol. The RED plate was sealed with a tape and incubated at 37 °C for 2 hours at 800 rpm on an Eppendorf MixMate vortex-mixer. Then samples were withdrawn from the respective chambers. To 25 µL of each dialysis sample, 25 µL of plasma and to 25 µL of plasma sample, 25 µL of dialysis buffer was added. Then 150 µL ice-cold extraction solvent (ACN/H2O (90:10) containing 12.5 ng/mL caffeine as internal standard) was added. Samples were incubated for 30 min on ice. Then samples were centrifuged at 4 °C at 2270 x g for 10 min.
# Supernatants were transferred to Greiner V-bottom 96-well plates and sealed with a tape. The […]
# percentage of bound compound was calculated as follows:
# (1) % free = (concentration buffer chamber / concentration plasma chamber) *100 […]
# Samples were analyzed using an Agilent 1290 Infinity II HPLC system coupled to an AB Sciex QTrap 6500plus mass spectrometer. LC conditions were as follows: column: Agilent […]
# Zorbax Eclipse Plus C18, 50x2.1 mm, 1.8 µm; temperature: 30 °C; injection volume: 5 µL per […]
# sample; flow rate: 700 µL/min. Samples were run under acidic and buffered conditions.
# Solvents for acidic conditions: A1: water + 0.1% formic acid; solvent B1: 95% acetonitrile/5% […]
# H2O + 0.1% formic acid; solvents for buffered conditions: A2: 95% water + 5% acetonitrile + […]
# 5 mM ammonium acetate + 40 µL/L acetic acid; B2: 95% acetonitrile + 5% water + 5 mM […]
# ammonium acetate + 40 µL/L acetic acid. The same gradient was applied for acidic and […]
# buffered conditions: 99% A at 0 min, 99% A until 1 min, 99% - 0% A from 1 min to 4.0 min, […]
# 0% A until 5.0 min. Mass transitions for controls and compounds are depicted in the following […]
# [2] = In vitro metabolic stability, human liver microsomes; type: in vitro ADME; settings: N=3, read-out: CLint HLM
# Experimental: We then determined the in vitro metabolic stability in plasma and liver microsomes as well as plasma protein binding for a selected subset of the synthesized LecA inhibitors, i.e. D1, D2, H1, H2 and L2 and compared them to the parent bisacylhydrazone 14 (Table 2). […] The metabolic stability of the compounds differed in presence of human liver microsomes (HLM). Introduction of a pyridine ring decreased stability (H1 CLint=28.6 μL min^−1/mg protein, H2 CLint=32.5 μL min^−1/mg protein) compared to the benzene analogues (D1 CLint=21.9 μL min^−1/mg protein, D2 CLint=21.0 μL min^−1/mg protein) and to the parent acylhydrazone 14 (CLint=19.6 μL min^−1/mg protein). […]
# mixer (Eppendorf). Acetonitrile and caffeine were dispensed using a Mantis Formulatrix. Then samples were centrifuged for 20 min at 2.270 x g at 4 °C and the supernatants were transferred to 96-well Greiner V-bottom plates. Peak areas of each compound and of the internal standard were analyzed using the MultiQuant 3.0 software (AB Sciex). Peak areas of the respective compound were normalized to the internal standard peak area and to the respective peak areas at time point 0 min: (C/D)/(A/B) with A: peak area of the compound at time point 0 min, B: peak area of the internal standard at time point 0 min, C: peak area of the compound at the respective time point, D: peak area of the internal standard at the respective time point.
# In vitro metabolic stability assay
# Liver microsomes (mouse and human, Thermo Fisher) were thawed slowly on ice. 20 mg/mL of microsomes, 2 µL of a 100 µM solution of every compound and 183 µL of 100 mM phosphate buffer were incubated 5 min at 37 °C in a water bath. Reactions were initiated using 10 µL of 20 mM NADPH (CarlRoth). Samples were incubated in three replicates at 37 °C under gentle agitation at 150 rpm. At 0, 5, 15, 30, and 60 min, reactions were terminated by the addition of 180 µL acetonitrile using a Mantis Formulatrix dispenser. Samples were vortexed for 5 min using an Eppendorf MixMate vortex mixer and centrifuged at 2.270 x g for 20 min at 4 °C. The supernatants were transferred to 96-well Greiner V-bottom plates, sealed and analyzed according to the section HPLC-MS analysis. Peak areas of the respective time point of the compounds were normalized to the peak area at time point 0 min. Then half-life was calculated using linear regression (Microsoft Excel). Clint [µL/min/mg protein] was calculated using the following formula: […]
# LecA = molecular target: T1, LecA (Pseudomonas aeruginosa, UniProt Q05097); test: LecA binding and cellular uptake by fluorescence confocal microscopy; type: cell-based; settings: for Concentration for complete inhibition of LecA binding and cellular uptake: 0.5 μM LecA-AF488, H1299 cells, confocal microscopy; for LecA binding to H1299 cells (fluorescence signal): 10 μM inhibitor
# T1 construct: made in house
# Experimental: The ability of H2 and L2 to diminish LecA binding to host receptors at the plasma membrane and its subsequent internalization into H1299 cells was further analyzed by confocal fluorescence microscopy. Here, the applied LecA concentration was increased to improve signal to noise and consequently image quality and inhibitors were preincubated with 0.5 μM LecA before addition to the cells. […] Confocal microscopy images thus confirmed that the divalent inhibitors can prevent LecA binding to the cell surface and reduce lectin uptake in a concentration‐dependent manner. […]
# LecA binding and cellular uptake by fluorescence confocal microscopy
# Between 5 and 7 × 10^4 cells were seeded on a 12 mm glass coverslip to which they adhered overnight, at 37 °C and 5% CO2. The next day, the cells were incubated with 0.5 µM LecA-AF488 for 30 min at 4 °C and protected from light. Where indicated, LecA was firstly preincubated with PNPG, G2, K2, H2 or L2 in RPMI medium, for 30 min at room temperature and protected from light and then added to the cells for further incubation (30 min, 4 °C).
# Subsequently, cells were washed with PBS (-/-) to remove the unbound lectin and inhibitors and the samples were incubated for 1 h at 37 °C. After the lectin stimulation, cells were washed twice with ice-cold PBS (-/-), fixed with 4% paraformaldehyde solution for 15 min and quenched with 50 mM ammonium chloride for 10 min. The membrane was permeabilized and cells were blocked by 0.2% Saponin in 3% BSA in PBS (w/v) for 30 min. The cell nuclei were counterstained with DAPI (5 × 10-9 g/L), and the samples were mounted on coverslips using Mowiol 4-88 (containing the anti-bleaching reagent DABCO). Samples were visualized with laser scanning confocal microscope system from Nikon (Eclipse Ti-E, A1R), equipped with a 60x oil immersion objective and a numerical aperture (NA) of 1.49. The images were analyzed
# T1 sequence (Q05097 whole entry): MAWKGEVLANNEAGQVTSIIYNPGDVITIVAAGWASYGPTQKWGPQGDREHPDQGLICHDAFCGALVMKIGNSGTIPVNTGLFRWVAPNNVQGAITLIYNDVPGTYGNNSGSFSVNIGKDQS
SMILES,"fraction unbound at 2 h, 1 µM [1]",microsomal CLint at 1 µM [2] [µL/min/mg],Concentration for complete inhibition of LecA binding and cellular uptake (LecA) [µM],LecA binding to H1299 cells (fluorescence signal) (LecA)
O=C(/C=C/c1ccc(O[C@@H]2O[C@H](CO)[C@H](O)[C@H](O)[C@H]2O)cc1)Nc1ccc(OCCOc2ccc(NC(=O)/C=C/c3ccc(O[C@@H]4O[C@H](CO)[C@H](O)[C@H](O)[C@H]4O)cc3)cc2)cc1 [Compound D1],0.004,21.9,,
O=C(CCc1ccc(O[C@@H]2O[C@H](CO)[C@H](O)[C@H](O)[C@H]2O)cc1)Nc1ccc(OCCOc2ccc(NC(=O)CCc3ccc(O[C@@H]4O[C@H](CO)[C@H](O)[C@H](O)[C@H]4O)cc3)cc2)cc1 [Compound D2],0.005,21,,
COc1ccc(NC(=O)CCc2ccc(O[C@@H]3O[C@H](CO)[C@H](O)[C@H](O)[C@H]3O)cc2)cn1 [Compound G2],,,75,
O=C(/C=C/c1ccc(O[C@@H]2O[C@H](CO)[C@H](O)[C@H](O)[C@H]2O)cc1)Nc1ccc(OCCOc2ccc(NC(=O)/C=C/c3ccc(O[C@@H]4O[C@H](CO)[C@H](O)[C@H](O)[C@H]4O)cc3)cn2)nc1 [Compound H1],,28.6,,
O=C(CCc1ccc(O[C@@H]2O[C@H](CO)[C@H](O)[C@H](O)[C@H]2O)cc1)Nc1ccc(OCCOc2ccc(NC(=O)CCc3ccc(O[C@@H]4O[C@H](CO)[C@H](O)[C@H](O)[C@H]4O)cc3)cn2)nc1 [Compound H2],0.005,32.5,,remarkably decreased
Cc1ccc(NC(=O)CCc2ccc(O[C@@H]3O[C@H](CO)[C@H](O)[C@H](O)[C@H]3O)cc2)cc1S(=O)(=O)O [Compound K2],,,75,
O=C(CCc1ccc(O[C@@H]2O[C@H](CO)[C@H](O)[C@H](O)[C@H]2O)cc1)Nc1ccc(CCc2ccc(NC(=O)CCc3ccc(O[C@@H]4O[C@H](CO)[C@H](O)[C@H](O)[C@H]4O)cc3)cc2S(=O)(=O)O)c(S(=O)(=O)O)c1 [Compound L2],0.62,9.2,,remarkably decreased
